Measurements: patent US20160310584A1, “FORMULATIONS FOR NEOPLASIA VACCINES” (THE BROAD INSTITUTE INC., priority 2013, published 2016)

Experiments:
[1] = Peptide diluent matrix (precipitation on dilution of DMSO dissolved peptides); type: physicochemical; conditions: 5 peptides in one vial diluted to 400 μg/mL
Method: Additional peptide solubility conditions were tested. Peptides CS6709, CS6712, CS6720, CS6726, and CS6783 were weighed at approximately 10 mg each. The peptides were then dissolved in approximately 200 μL USP grade DMSO to obtain a 50 mg/mL concentration for each peptide. […] The sample appeared to be cloudy. […] The volume of CS6709 added to the single vial was 120 μL. […] Upon addition of the PBS pH 7.4, it was observed that one or more of the peptides had precipitated out. To determine which of the peptides precipitated, Applicants followed the matrix in Table 5 below using very small amounts (10-20 μL) of the DMSO dissolved peptides and adding these peptides to the various liquids.

[2] = Peptide solubility evaluation: dissolution in DMSO, dilution in D5W with or without succinate; type: physicochemical; conditions: DMSO/D5W; Table 4; Y/N; diluted to 2 mg/ml; read-out: Solubility In DMSO/D5W
Method: In a representative procedure, peptides were weighed and corrected for % peptide content, and then dissolved in DMSO to a concentration of 50 mg/mL. The DMSO/Peptide solution was then diluted with 5 mM sodium succinate in D5W to a 2 mg/mL peptide concentration.
Additional peptide solubility conditions were tested. Peptides CS6709, CS6712, CS6720, CS6726, and CS6783 were weighed at approximately 10 mg each. The peptides were then dissolved in approximately 200 μL USP grade DMSO to obtain a 50 mg/mL concentration for each peptide. […] Additional 50 μL increments of DMSO were added to Peptide CS6709 up to 400 μL; for a total of 600 μL of DMSO.
Based on gross weight and peptide content, 15 mg (net weight) or slightly more of each individual peptide are weighed and 100% USP Grade DMSO […] is added to achieve a final peptide concentration of 50 mg/ml.

Precipitation when PBS pH 7.4 was added as diluent to the peptide mixture [1]: precipitate
solubility [2]: < 2000 µg/mL
Substance: H-LLTDRNTSGTTFTLLGVSDYPELQVPLFLVFLA-OH [CS6783]
